Experimental data: patent US20150337013A1, “NOVEL ANTIBACTERIAL AGENTS FOR THE TREATMENT OF GRAM POSITIVE INFECTIONS” (priority 2008, published 2015)
Like-named read-outs stand apart in the source and are kept apart here.

Key:
[1] = system: C. difficile spores (ATCC #43596); experiment: Hamster C. difficile infection (CDAD) protection model; type: in vivo, Syrian golden hamsters; conditions: oral 0.5 mg/kg once daily for 5 days (MET 70 mg/kg three times daily for 5 days)
Procedure: Syrian golden hamsters were pretreated with 10 mg/kg clindamycin subcutaneously 24 hours before bacterial challenge. An inoculum of 20 C. difficile spores (ATCC #43596) in sterile saline was administered orally. Treatment was initiated 4 hours post-inoculation with dH2O, metronidazole (MET), vancomycin (VAN), or a compound of the present invention. Oral dosing regimens for VAN and compounds of Formula I were 0.5 mg/kg once daily for 5 days. MET was administered at 70 mg/kg three times daily for 5 days. CDAD was confirmed as the cause of death by observations at necropsy, including wet tail and/or macroscopic cecal alterations. The % protection provided by each therapy tested was calculated at 1 and 21 days post-dosing.

[2] = system: Enterococcus faecalis EFS.201 (ATCC 49452); type: cell-based
Method in brief: (§1)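 Susceptibility is measured by modified CLSI broth microdilution using calcium-supplemented Mueller Hinton broth (50 mg/L) and an inoculum of 5×10^5 bacteria. MIC values in μg/mL mark the lowest concentration that leaves no visible turbidity.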

[3] = system: Enterococcus faecalis EFS.312, Daptomycin resistant mutant (EFA); type: cell-based; conditions: MHBc with 50 mg/L calcium, 18-20 hours at 37° C.
Method in brief: as §1

[4] = system: Enterococcus faecium EFM.14 (ATCC 6569); type: cell-based
Method in brief: as §1

[5] = system: Enterococcus faecium EFM.384, Daptomycin resistant mutant (14-A); type: cell-based; conditions: MHBc with 50 mg/L calcium, 18-20 hours at 37° C.
Method in brief: as §1

[6] = system: Staphylococcus aureus SAU.278, Daptomycin resistant mutant (D10); type: cell-based; conditions: MHBc with 50 mg/L calcium, 18-20 hours at 37° C.
Method in brief: as §1

[7] = system: Staphylococcus aureus SAU.399 (ATCC 43300), Methicillin and Oxacillin Resistant; type: cell-based
Method in brief: as §1

[8] = system: Staphylococcus aureus SAU.42 (ATCC 29213); type: cell-based
Method in brief: as §1

[9] = MHBc with 50 mg/L calcium, 18-20 hours at 37° C.

## Cc1ncc([N+](=O)[O-])n1CCO [Metronidazole, 2-methyl-5-nitro-1H-imidazole-1-ethanol, reference compound]
[1]
  Mean % Protection 1 Day Post Dosing: 100%
  Mean % Protection 21 Days Post Dosing: 0%

## CN[C@H](CC(C)C)C(=O)N[C@H]1C(=O)N[C@@H](CC(N)=O)C(=O)N[C@H]2C(=O)N[C@H]3C(=O)N[C@H](C(=O)N[C@H](C(=O)O)c4cc(O)cc(O)c4-c4cc3ccc4O)[C@H](O)c3ccc(c(Cl)c3)Oc3cc2cc(c3O[C@@H]2O[C@H](CO)[C@@H](O)[C@H](O)[C@H]2O[C@H]2C[C@](C)(N)[C@H](O)[C@H](C)O2)Oc2ccc(cc2Cl)[C@H]1O [Vancomycin, vancomycin, reference compound]
[1]
  Mean % Protection 1 Day Post Dosing: 90%
  Mean % Protection 21 Days Post Dosing: 62%

## CCCC1CCC(c2ccc(C(=O)N[C@@H](Cc3c[nH]c4ccccc34)C(=O)N[C@H](CC(N)=O)C(=O)N[C@@H](CC(=O)O)C(=O)N[C@@H]3C(=O)NCC(=O)N[C@@H](CCCN)C(=O)N[C@@H](CC(=O)O)C(=O)N[C@H](C)C(=O)N[C@@H](CC(=O)O)C(=O)NCC(=O)N[C@H](CO)C(=O)N[C@@H]([C@H](C)CC(=O)O)C(=O)N[C@@H](CC(=O)c4ccccc4N)C(=O)O[C@@H]3C)cc2)CC1 (single isomer, unassigned) [53 isomer II]
[2]; ATCC 49452
  Efs201 MIC: 1 µg/mL
[3]
  Efs312 MIC: 4 µg/mL
[4]; ATCC 6569
  Efm14 MIC: 1 µg/mL
[5]
  Efm384 MIC: 4 µg/mL
[6]
  Sa278 MIC: 2 µg/mL
[7]; ATCC 43300
  Sa399 MIC: 1 µg/mL
[8]; ATCC 29213
  Sa42 MIC: 0.5 µg/mL
Clostridium difficile
  C. diff MIC90: 1 µg/mL

## CCCOc1ccc(-c2ccc(C(=O)N[C@@H](Cc3c[nH]c4ccccc34)C(=O)N[C@H](CC(N)=O)C(=O)N[C@@H](CC(=O)O)C(=O)N[C@@H]3C(=O)NCC(=O)N[C@@H](CCCN)C(=O)N[C@@H](CC(=O)O)C(=O)N[C@H](C)C(=O)N[C@@H](CC(=O)O)C(=O)NCC(=O)N[C@H](CO)C(=O)N[C@@H]([C@H](C)CC(=O)O)C(=O)N[C@@H](CC(=O)c4ccccc4N)C(=O)O[C@@H]3C)cc2)cc1 [Compound 59]
[2]; ATCC 49452
  Efs201 MIC: 4 µg/mL
[3]
  Efs312 MIC: >32 µg/mL
[4]; ATCC 6569
  Efm14 MIC: 4 µg/mL
[5]
  Efm384 MIC: 32 µg/mL
[6]
  Sa278 MIC: 4 µg/mL
[7]; ATCC 43300
  Sa399 MIC: 0.5 µg/mL
[8]; ATCC 29213
  Sa42 MIC: 0.5 µg/mL
Clostridium difficile
  C. diff MIC90: 4 µg/mL

## C[C@H](CC(=O)O)[C@@H]1NC(=O)[C@@H](CO)NC(=O)CNC(=O)[C@H](CC(=O)O)NC(=O)[C@@H](C)NC(=O)[C@H](CC(=O)O)NC(=O)[C@H](CCCN)NC(=O)CNC(=O)[C@@H](NC(=O)[C@H](CC(=O)O)NC(=O)[C@@H](CC(N)=O)NC(=O)[C@H](Cc2c[nH]c3ccccc23)NC(=O)CCCCC2CCCCC2)[C@@H](C)OC(=O)[C@H](CC(=O)c2ccccc2N)NC1=O [Compound 24]
[2]; ATCC 49452
  Efs201 MIC: 2 µg/mL
[3]
  Efs312 MIC: >32 µg/mL
[4]; ATCC 6569
  Efm14 MIC: 4 µg/mL
[5]
  Efm384 MIC: 32 µg/mL
[6]
  Sa278 MIC: 8 µg/mL
[7]; ATCC 43300
  Sa399 MIC: 1 µg/mL
[8]; ATCC 29213
  Sa42 MIC: 1 µg/mL
Clostridium difficile
  C. diff MIC90: 4 µg/mL

## C[C@H](CC(=O)O)[C@@H]1NC(=O)[C@@H](CO)NC(=O)CNC(=O)[C@H](CC(=O)O)NC(=O)[C@@H](C)NC(=O)[C@H](CC(=O)O)NC(=O)[C@H](CCCN)NC(=O)CNC(=O)[C@@H](NC(=O)[C@H](CC(=O)O)NC(=O)[C@@H](CC(N)=O)NC(=O)[C@H](Cc2c[nH]c3ccccc23)NC(=O)CCCCCCC2CCCCC2)[C@@H](C)OC(=O)[C@H](CC(=O)c2ccccc2N)NC1=O [Compound 25]
[2]; ATCC 49452
  Efs201 MIC: 0.5 µg/mL
[3]
  Efs312 MIC: 16 µg/mL
[4]; ATCC 6569
  Efm14 MIC: 1 µg/mL
[5]
  Efm384 MIC: 8 µg/mL
[6]
  Sa278 MIC: 1 µg/mL
[7]; ATCC 43300
  Sa399 MIC: 0.5 µg/mL
[8]; ATCC 29213
  Sa42 MIC: 0.5 µg/mL
Clostridium difficile
  C. diff MIC90: 1 µg/mL

## CCCCCCCCCC(C)NC(=O)N[C@@H](Cc1c[nH]c2ccccc12)C(=O)N[C@H](CC(N)=O)C(=O)N[C@@H](CC(=O)O)C(=O)N[C@@H]1C(=O)NCC(=O)N[C@@H](CCCN)C(=O)N[C@@H](CC(=O)O)C(=O)N[C@H](C)C(=O)N[C@@H](CC(=O)O)C(=O)NCC(=O)N[C@H](CO)C(=O)N[C@@H]([C@H](C)CC(=O)O)C(=O)N[C@@H](CC(=O)c2ccccc2N)C(=O)O[C@@H]1C (single isomer, unassigned) [14 isomer I]
[2]; ATCC 49452
  Efs201 MIC: 1 µg/mL
[3]
  Efs312 MIC: 32 µg/mL
[4]; ATCC 6569
  Efm14 MIC: 0.5 µg/mL
[5]
  Efm384 MIC: 8 µg/mL
[6]
  Sa278 MIC: 1 µg/mL
[7]; ATCC 43300
  Sa399 MIC: 0.5 µg/mL
[8]; ATCC 29213
  Sa42 MIC: 0.25 µg/mL
Clostridium difficile
  C. diff MIC90: 1.0 µg/mL

## CCCCCCCCCCCCCC(=O)N[C@@H](Cc1c[nH]c2ccccc12)C(=O)N[C@H](CC(N)=O)C(=O)N[C@@H](CC(=O)O)C(=O)N[C@@H]1C(=O)NCC(=O)N[C@@H](CCCN)C(=O)N[C@@H](CC(=O)O)C(=O)N[C@H](C)C(=O)N[C@@H](CC(=O)O)C(=O)NCC(=O)N[C@H](CO)C(=O)N[C@@H]([C@H](C)CC(=O)O)C(=O)N[C@@H](CC(=O)c2ccccc2N)C(=O)O[C@@H]1C [Compound 6]
[2]; ATCC 49452
  Efs201 MIC: 0.25 µg/mL
[3]
  Efs312 MIC: 4 µg/mL
[4]; ATCC 6569
  Efm14 MIC: 0.5 µg/mL
[5]
  Efm384 MIC: 4 µg/mL
[6]
  Sa278 MIC: 2 µg/mL
[7]; ATCC 43300
  Sa399 MIC: 0.25 µg/mL
[8]; ATCC 29213
  Sa42 MIC: 1 µg/mL
Clostridium difficile
  C. diff MIC90: 16 µg/mL

## CCCCCOc1ccc(/C=C/C(=O)N[C@@H](Cc2c[nH]c3ccccc23)C(=O)N[C@H](CC(N)=O)C(=O)N[C@@H](CC(=O)O)C(=O)N[C@@H]2C(=O)NCC(=O)N[C@@H](CCCN)C(=O)N[C@@H](CC(=O)O)C(=O)N[C@H](C)C(=O)N[C@@H](CC(=O)O)C(=O)NCC(=O)N[C@H](CO)C(=O)N[C@@H]([C@H](C)CC(=O)O)C(=O)N[C@@H](CC(=O)c3ccccc3N)C(=O)O[C@@H]2C)cc1 [Compound 41]
[2]; [9]
  Efs201 MIC: 4 µg/mL
[3]
  Efs312 MIC: >32 µg/mL
[4]; [9]
  Efm14 MIC: 8 µg/mL
[5]
  Efm384 MIC: >32 µg/mL
[6]
  Sa278 MIC: 2 µg/mL
[7]; [9]
  Sa399 MIC: 2 µg/mL
[8]; [9]
  Sa42 MIC: 4 µg/mL
Clostridium difficile
  C. diff MIC90: 4 µg/mL

## CCCCCCCCCC(=O)N[C@@H](Cc1c[nH]c2ccccc12)C(=O)N[C@H](CC(N)=O)C(=O)N[C@@H](CC(=O)O)C(=O)N[C@@H]1C(=O)NCC(=O)N[C@@H](CCCN)C(=O)N[C@@H](CC(=O)O)C(=O)N[C@H](C)C(=O)N[C@@H](CC(=O)O)C(=O)NCC(=O)N[C@H](CO)C(=O)N[C@@H]([C@H](C)CC(=O)O)C(=O)N[C@@H](CC(=O)c2ccccc2N)C(=O)O[C@@H]1C [Daptomycin, reference compound]
[2]; ATCC 49452
  Efs201 MIC: 2 µg/mL
[3]
  Efs312 MIC: >32 µg/mL
[4]; ATCC 6569
  Efm14 MIC: 4 µg/mL
[5]
  Efm384 MIC: >32 µg/mL
[6]
  Sa278 MIC: 8 µg/mL
[7]; ATCC 43300
  Sa399 MIC: 0.5 µg/mL
[8]; ATCC 29213
  Sa42 MIC: 0.5 µg/mL
Clostridium difficile
  C. diff MIC90: 2 µg/mL

## CCCCCCCCOc1ccc(C(=O)N[C@@H](Cc2c[nH]c3ccccc23)C(=O)N[C@H](CC(N)=O)C(=O)N[C@@H](CC(=O)O)C(=O)N[C@@H]2C(=O)NCC(=O)N[C@@H](CCCN)C(=O)N[C@@H](CC(=O)O)C(=O)N[C@H](C)C(=O)N[C@@H](CC(=O)O)C(=O)NCC(=O)N[C@H](CO)C(=O)N[C@@H]([C@H](C)CC(=O)O)C(=O)N[C@@H](CC(=O)c3ccccc3N)C(=O)O[C@@H]2C)cc1 [Compound 36]
[2]; [9]
  Efs201 MIC: 0.5 µg/mL
[3]
  Efs312 MIC: 4 µg/mL
[4]; [9]
  Efm14 MIC: 0.5 µg/mL
[5]
  Efm384 MIC: 4 µg/mL
[6]
  Sa278 MIC: 1.00 µg/mL
[7]; [9]
  Sa399 MIC: 0.25 µg/mL
[8]; [9]
  Sa42 MIC: 0.25 µg/mL
Clostridium difficile
  C. diff MIC90: 0.5 µg/mL

## CCCCCCCCC1CC1C(=O)N[C@@H](Cc1c[nH]c2ccccc12)C(=O)N[C@H](CC(N)=O)C(=O)N[C@@H](CC(=O)O)C(=O)N[C@@H]1C(=O)NCC(=O)N[C@@H](CCCN)C(=O)N[C@@H](CC(=O)O)C(=O)N[C@H](C)C(=O)N[C@@H](CC(=O)O)C(=O)NCC(=O)N[C@H](CO)C(=O)N[C@@H]([C@H](C)CC(=O)O)C(=O)N[C@@H](CC(=O)c2ccccc2N)C(=O)O[C@@H]1C (single isomer, unassigned) [27 isomer I]
[2]; ATCC 49452
  Efs201 MIC: 2 µg/mL
[3]
  Efs312 MIC: 32 µg/mL
[4]; ATCC 6569
  Efm14 MIC: 4 µg/mL
[5]
  Efm384 MIC: 32 µg/mL
[6]
  Sa278 MIC: 8 µg/mL
[7]; ATCC 43300
  Sa399 MIC: 2 µg/mL
[8]; ATCC 29213
  Sa42 MIC: 2 µg/mL
Clostridium difficile
  C. diff MIC90: 2 µg/mL
